Patent publication US5441941A, “1,2-dihydroellipticines with activity against CNS specific cancer” (The United States of America as represented by the …, priority 1993, dated 1995)

Tests used:
OVCAR-8 = test: NCI in vitro screen, SRB percent growth, Ovarian Cancer
MALME-3M = test: NCI in vitro screen, SRB percent growth, Melanoma
RXF-631 = test: NCI in vitro screen, SRB percent growth, Renal Cancer
CAKI-1 = test: as above
KM20L2 = test: cells; details: Homo sapiens
K-562 = test: NCI in vitro screen, SRB percent growth, Leukemia
Human tumor cell lines = test: NCI in vitro screen, overall result; details: Tables I and II
OVCAR-5 = test: NCI in vitro screen, SRB percent growth, Ovarian Cancer
M14 = test: NCI in vitro screen, SRB percent growth, Melanoma
UO-31 = test: NCI in vitro screen, SRB percent growth, Renal Cancer
UACC-62 = test: NCI in vitro screen, SRB percent growth, Melanoma
A549/ATCC = test: NCI in vitro screen, SRB percent growth, Non-Small Cell Lung Cancer
DLD-1 = test: cells; details: Homo sapiens
ACHN = test: NCI in vitro screen, SRB percent growth, Renal Cancer
XF 498 = test: NCI in vitro screen, SRB percent growth, CNS Cancer
UACC-257 = test: NCI in vitro screen, SRB percent growth, Melanoma
HCC-2998 = test: cells; details: Homo sapiens
[1] = Log10 Concentration -4.0, 100 µM
[2] = Log10 Concentration -7.0, 0.1 µM
[3] = KM-20L2, read-out: Percent Growth
[4] = DLD-1, read-out: Percent Growth
[5] = HCC 2998, read-out: Percent Growth

SMILES: COc1ccc2[nH]c3c(C)c4c(c(C)c3c2c1)CN(C)C=C4 [Formula VII]
- Percent Growth (OVCAR-8; [1]): -17%
- Percent Growth (OVCAR-8; Log10 Concentration -5.0): 5%
- Percent Growth (OVCAR-8; Log10 Concentration -6.0, 1 µM): 28%
- Percent Growth (OVCAR-8; [2]): 67%
- Percent Growth (OVCAR-8; Log10 Concentration -8.0): 72%
- TGI (OVCAR-8; PG=0): 16.6 µM
- GI50 (OVCAR-8; PG=+50): 0.274 µM
- CC50 (OVCAR-8; read-out: LC-50, PG=-50): > 100 µM
- Percent Growth (MALME-3M; Log10 Concentration -5.0): -31%
- Percent Growth (MALME-3M; Log10 Concentration -6.0, 1 µM): 55%
- Percent Growth (MALME-3M; [2]): 110%
- Percent Growth (MALME-3M; Log10 Concentration -8.0): 112%
- TGI (MALME-3M; PG=0): 4.37 µM
- GI50 (MALME-3M; PG=+50): 1.41 µM
- CC50 (MALME-3M; read-out: LC-50, PG=-50): > 100 µM
- Percent Growth (RXF-631; [1]): -29%
- Percent Growth (RXF-631; Log10 Concentration -5.0): 18%
- Percent Growth (RXF-631; Log10 Concentration -6.0, 1 µM): 38%
- Percent Growth (RXF-631; [2]): 83%
- Percent Growth (RXF-631; Log10 Concentration -8.0): 106%
- TGI (RXF-631; PG=0): 24.3 µM
- GI50 (RXF-631; PG=+50): 0.536 µM
- CC50 (RXF-631; read-out: LC-50, PG=-50): > 100 µM
- Percent Growth (CAKI-1; [1]): -11%
- Percent Growth (CAKI-1; Log10 Concentration -5.0): 38%
- Percent Growth (CAKI-1; Log10 Concentration -6.0, 1 µM): 83%
- Percent Growth (CAKI-1; [2]): 107%
- Percent Growth (CAKI-1; Log10 Concentration -8.0): 110%
- TGI (CAKI-1; PG=0): 60.7 µM
- GI50 (CAKI-1; PG=+50): 5.5 µM
- CC50 (CAKI-1; read-out: LC-50, PG=-50): > 100 µM
- GI50 (KM20L2; KM-20L2): 3.63 µM
- CC50 (KM20L2; KM-20L2, read-out: LC-50): > 100 µM
- activity at 0.01 µM (KM20L2; [3]): 106%
- activity at 0.1 µM (KM20L2; [3]): 104%
- activity at 1 µM (KM20L2; [3]): 82%
- activity at 10 µM (KM20L2; [3]): 25%
- activity at 100 µM (KM20L2; [3]): -34%
- IC (TGI) (KM20L2; KM-20L2, read-out: TGI): 26.4 µM
- Percent Growth (K-562; [1]): -24%
- Percent Growth (K-562; Log10 Concentration -5.0): 11%
- Percent Growth (K-562; Log10 Concentration -6.0, 1 µM): 75%
- Percent Growth (K-562; [2]): 84%
- TGI (K-562; PG=0): 20.4 µM
- GI50 (K-562; PG=+50): 2.48 µM
- CC50 (K-562; read-out: LC-50, PG=-50): > 100 µM
- effect against many kinds of cancer (Human tumor cell lines): effective against many kinds of cancer
- Percent Growth (OVCAR-5; [1]): -10%
- Percent Growth (OVCAR-5; Log10 Concentration -5.0): 70%
- Percent Growth (OVCAR-5; Log10 Concentration -6.0, 1 µM): 119%
- Percent Growth (OVCAR-5; [2]): 136%
- Percent Growth (OVCAR-5; Log10 Concentration -8.0): 133%
- TGI (OVCAR-5; PG=0): 75.5 µM
- GI50 (OVCAR-5; PG=+50): 17.8 µM
- CC50 (OVCAR-5; read-out: LC-50, PG=-50): > 100 µM
- Percent Growth (M14; [1]): -98%
- Percent Growth (M14; Log10 Concentration -5.0): 40%
- Percent Growth (M14; Log10 Concentration -6.0, 1 µM): 103%
- Percent Growth (M14; [2]): 111%
- Percent Growth (M14; Log10 Concentration -8.0): 99%
- TGI (M14; PG=0): 19.6 µM
- GI50 (M14; PG=+50): 7.01 µM
- CC50 (M14; read-out: LC-50, PG=-50): 45.2 µM
- Percent Growth (UO-31; [1]): 10%
- Percent Growth (UO-31; Log10 Concentration -5.0): 83%
- Percent Growth (UO-31; Log10 Concentration -6.0, 1 µM): 101%
- Percent Growth (UO-31; [2]): 112%
- Percent Growth (UO-31; Log10 Concentration -8.0): 119%
- TGI (UO-31; PG=0): > 100 µM
- GI50 (UO-31; PG=+50): 28.4 µM
- CC50 (UO-31; read-out: LC-50, PG=-50): > 100 µM
- Percent Growth (UACC-62; [1]): -44%
- Percent Growth (UACC-62; Log10 Concentration -5.0): 31%
- Percent Growth (UACC-62; Log10 Concentration -6.0, 1 µM): 88%
- Percent Growth (UACC-62; [2]): 118%
- Percent Growth (UACC-62; Log10 Concentration -8.0): 129%
- TGI (UACC-62; PG=0): 26.1 µM
- GI50 (UACC-62; PG=+50): 4.68 µM
- CC50 (UACC-62; read-out: LC-50, PG=-50): > 100 µM
- Percent Growth (A549/ATCC; [1]): -26%
- Percent Growth (A549/ATCC; Log10 Concentration -5.0): 10%
- Percent Growth (A549/ATCC; Log10 Concentration -6.0, 1 µM): 51%
- Percent Growth (A549/ATCC; [2]): 87%
- Percent Growth (A549/ATCC; Log10 Concentration -8.0): 102%
- TGI (A549/ATCC; PG=0): 19.2 µM
- GI50 (A549/ATCC; PG=+50): 1.05 µM
- CC50 (A549/ATCC; read-out: LC-50, PG=-50): > 100 µM
- GI50 (DLD-1; DLD-1): 3.23 µM
- CC50 (DLD-1; DLD-1, read-out: LC-50): > 100 µM
- activity at 0.01 µM (DLD-1; [4]): 103%
- activity at 0.1 µM (DLD-1; [4]): 99%
- activity at 1 µM (DLD-1; [4]): 75%
- activity at 10 µM (DLD-1; [4]): 26%
- activity at 100 µM (DLD-1; [4]): -15%
- IC (TGI) (DLD-1; DLD-1, read-out: TGI): 42.3 µM
- Percent Growth (ACHN; [1]): -4%
- Percent Growth (ACHN; Log10 Concentration -5.0): 79%
- Percent Growth (ACHN; Log10 Concentration -6.0, 1 µM): 102%
- Percent Growth (ACHN; [2]): 113%
- Percent Growth (ACHN; Log10 Concentration -8.0): 113%
- TGI (ACHN; PG=0): 89.1 µM
- GI50 (ACHN; PG=+50): 22.4 µM
- CC50 (ACHN; read-out: LC-50, PG=-50): > 100 µM
- Percent Growth (XF 498; [1]): -60%
- Percent Growth (XF 498; Log10 Concentration -5.0): -25%
- Percent Growth (XF 498; Log10 Concentration -6.0, 1 µM): 81%
- Percent Growth (XF 498; [2]): 140%
- Percent Growth (XF 498; Log10 Concentration -8.0): 174%
- TGI (XF 498; PG=0): 5.82 µM
- GI50 (XF 498; PG=+50): 1.97 µM
- CC50 (XF 498; read-out: LC-50, PG=-50): 52.7 µM
- Percent Growth (UACC-257; [1]): -5%
- Percent Growth (UACC-257; Log10 Concentration -6.0, 1 µM): 108%
- Percent Growth (UACC-257; [2]): 113%
- Percent Growth (UACC-257; Log10 Concentration -8.0): 110%
- TGI (UACC-257; PG=0): 80.7 µM
- GI50 (UACC-257; PG=+50): 9.63 µM
- CC50 (UACC-257; read-out: LC-50, PG=-50): > 100 µM
- GI50 (HCC-2998; HCC 2998): 4.74 µM
- CC50 (HCC-2998; HCC 2998, read-out: LC-50): 43.9 µM
- activity at 0.01 µM (HCC-2998; [5]): 111%
- activity at 0.1 µM (HCC-2998; [5]): 90%
- activity at 1 µM (HCC-2998; [5]): 98%
- activity at 10 µM (HCC-2998; [5]): 27%
- activity at 100 µM (HCC-2998; [5]): -93%
- IC (TGI) (HCC-2998; HCC 2998, read-out: TGI): 16.8 µM
